Test results from patent US20250296953A1, “3,4-THIAZOLO-STEROIDS AND METHODS OF MAKING AND USING THE SAME” (Arkansas State University - Jonesboro, priority 2018, published 2025).
Where two headings read alike, the source gives them in different places.

Legend:
HCT-15 (Colon Cancer) = experiment: NCI 60 one dose screen; type: cell-based, human
SF-295 = experiment: NCI 60 one dose screen; type: cell-based, human; details: one dose; CNS Cancer; SF-295
[1] = system: 60 different human tumor cell lines; details: for GI50 / TGI: five dose
[2] = A549/ATCC (Non-small Cell Lung Cancer)
[3] = EKVX (Non-small Cell Lung Cancer)
[4] = HOP-62 (Non-small Cell Lung Cancer)
[5] = HOP-92 (Non-small Cell Lung Cancer)
[6] = NCI-H23 (Non-small Cell Lung Cancer)
[7] = NCI-H226 (Non-small Cell Lung Cancer)
[8] = NCI-H322M (Non-small Cell Lung Cancer)
[9] = NCI-H460 (Non-small Cell Lung Cancer)
[10] = NCI-H522 (Non-small Cell Lung Cancer)

For `C[C@]12CCc3nc(Nc4ccc(O)cc4)sc3C1=CC[C@@H]1[C@@H]2CC[C@]2(C)C(=O)CC[C@@H]12` [IIa.35], the “Growth Percent” value (HCT-15 (Colon Cancer)) was −67.96%, the “Growth Percent” value (SF-295) was 52.47% and the CC50 [1] was over 100000 nM. For the same molecule, the GI50 ([1]; 786-0 (Renal Cancer)) was 1800 nM, the TGI ([1]; 786-0 (Renal Cancer)) was 3.82 and the GI50 ([1]; A498 (Renal Cancer)) was 14200 nM. It also gave a TGI ([1]; A498 (Renal Cancer)) of 8.06E−5, a GI50 [1, 2] of 4420 nM and a TGI [1, 2] of over 1.00E−4. It also gave a GI50 ([1]; ACHN (Renal Cancer)) of 2920 nM, a TGI ([1]; ACHN (Renal Cancer)) of 9.29E−6 and a GI50 ([1]; BT-549 (Breast Cancer)) of 3130 nM. For the same molecule, the TGI ([1]; BT-549 (Breast Cancer)) was over 1.00E−4, the GI50 ([1]; CAKI-1 (Renal Cancer)) was 1930 nM and the TGI ([1]; CAKI-1 (Renal Cancer)) was 3.97E−6. The GI50 ([1]; CCRF-CEM (Leukemia)) was 2470 nM, the TGI ([1]; CCRF-CEM (Leukemia)) was over 1.00E−4 and the GI50 ([1]; COLO 205 (Colon Cancer)) was 2000 nM. For the same molecule, the TGI ([1]; COLO 205 (Colon Cancer)) was 3.90E−6, the GI50 ([1]; DU-145 (Prostate Cancer)) was 1660 nM and the TGI ([1]; DU-145 (Prostate Cancer)) was 3.14E−6. The GI50 [1, 3] was 10400 nM, the TGI [1, 3] was 4.00E−4 and the GI50 ([1]; HCC-2998 (Colon Cancer)) was 4110 nM. The TGI ([1]; HCC-2998 (Colon Cancer)) was over 1.00E−4, the GI50 ([1]; HCT-15 (Colon Cancer)) was 1660 nM and the TGI ([1]; HCT-15 (Colon Cancer)) was 4.40E−6. For the same molecule, the GI50 ([1]; HCT-116 (Colon Cancer)) was 1900 nM, the GI50 ([1]; HL-60(TB) (Leukemia)) was 2570 nM and the TGI ([1]; HL-60(TB) (Leukemia)) was 7.27E−6. It also gave a GI50 [1, 4] of 3280 nM, a TGI [1, 4] of 1.26E−5 and a GI50 [1, 5] of 2390 nM. It also gave a TGI [1, 5] of 5.65E−6, a GI50 ([1]; HS 578T (Breast Cancer)) of 3380 nM and a TGI ([1]; HS 578T (Breast Cancer)) of over 1.00E−4. For the same molecule, the GI50 ([1]; HT29 (Colon Cancer)) was 2130 nM, the TGI ([1]; HT29 (Colon Cancer)) was 5.59E−6 and the GI50 ([1]; IGROV1 (Ovarian Cancer)) was 1990 nM. It also gave a TGI ([1]; IGROV1 (Ovarian Cancer)) of 5.02E−6, a GI50 ([1]; K-562 (Leukemia)) of 2960 nM and a TGI ([1]; K-562 (Leukemia)) of over 1.00E−4. It also gave a GI50 ([1]; KM12 (Colon Cancer)) of 1930 nM, a TGI ([1]; KM12 (Colon Cancer)) of 4.06E−6 and a GI50 ([1]; LOX IMVI (Melanoma)) of 1580 nM. For the same molecule, the TGI ([1]; LOX IMVI (Melanoma)) was 3.04E−6, the GI50 ([1]; M14 (Melanoma)) was 2680 nM and the GI50 ([1]; MALME-3M (Melanoma)) was 1810 nM. The TGI ([1]; MALME-3M (Melanoma)) was 4.03E−6, the GI50 ([1]; MCF7 (Breast Cancer)) was 1660 nM and the TGI ([1]; MCF7 (Breast Cancer)) was 4.26E−6. The GI50 ([1]; MDA-MB-231/ATCC (Breast Cancer)) was 3220 nM, the GI50 ([1]; MDA-MB-435 (Melanoma)) was 2080 nM and the TGI ([1]; MDA-MB-435 (Melanoma)) was 5.32E−6. It also gave a GI50 ([1]; MDA-MB-468 (Breast Cancer)) of 2170 nM, a TGI ([1]; MDA-MB-468 (Breast Cancer)) of 5.80E−6 and a GI50 ([1]; MOLT-4 (Leukemia)) of 2380 nM. The TGI ([1]; MOLT-4 (Leukemia)) was over 1.00E−4, the GI50 [1, 6] was 3960 nM and the TGI [1, 6] was over 1.00E−4. For the same molecule, the GI50 [1, 7] was 2860 nM, the TGI [1, 7] was 8.52E−6 and the GI50 [1, 8] was 6400 nM. For the same molecule, the TGI [1, 8] was over 1.00E−4, the GI50 [1, 9] was 3010 nM and the TGI [1, 9] was 1.05E−5. The GI50 [1, 10] was 1420 nM, the TGI [1, 10] was 2.96E−6 and the GI50 ([1]; NCI/ADR-RES (Ovarian Cancer)) was 3270 nM. It also gave a TGI ([1]; NCI/ADR-RES (Ovarian Cancer)) of over 1.00E−4, a GI50 ([1]; OVCAR-3 (Ovarian Cancer)) of 1710 nM and a TGI ([1]; OVCAR-3 (Ovarian Cancer)) of 3.38E−6. The GI50 ([1]; OVCAR-4 (Ovarian Cancer)) was 2030 nM, the GI50 ([1]; OVCAR-5 (Ovarian Cancer)) was 3910 nM and the TGI ([1]; OVCAR-5 (Ovarian Cancer)) was over 1.00E−4. For the same molecule, the GI50 ([1]; OVCAR-8 (Ovarian Cancer)) was 3220 nM, the TGI ([1]; OVCAR-8 (Ovarian Cancer)) was over 1.00E−4 and the GI50 ([1]; PC-3 (Prostate Cancer)) was 2490 nM. For the same molecule, the TGI ([1]; PC-3 (Prostate Cancer)) was 8.15E−6, the GI50 ([1]; RXF 393 (Renal Cancer)) was 1780 nM and the TGI ([1]; RXF 393 (Renal Cancer)) was 4.14E−6. The GI50 ([1]; SF-268 (CNS Cancer)) was 3370 nM.
